From the METLIN SMRT retention time set (Domingo-Almenara et al. 2019)

Experiment: gradient 5% acetonitrile 3 min, to 50% in 2 min, to 85% in 15 min, held 3 min, 100 µL/min
Details: column: Zorbax Extend-C18 2.1 x 50 mm; eluents: water / acetonitrile, 0.1% formic acid
How it was run: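 Retention times of pure standards were taken from adduct peaks that were selected by computer and manually inspected. Over 3 months, mixtures of ~100 molecules were run by HPLC–quadrupole time-of-flight mass spectrometry in positive and negative ionization mode. The Zorbax Extend-C18 column (2.1 × 50 mm, 1.8 μm) ran at 100 μL/min in water and acetonitrile, each containing 0.1% formic acid, with 40 μL dead volume and 900 μL dwell volume.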

CCOc1ccccc1CNC(=O)c1nnc(-c2ccc(S(=O)(=O)N3CCC(C)CC3)cc2)o1
RP-LC retention time: 1140 s

CN(CCc1noc(COc2ccc(F)cc2)n1)C(=O)Nc1ccccc1
RP-LC retention time: 856 s

CN(Cc1ccco1)C(=O)c1ccc(-n2cc(CNC(=O)C3CCC3)cn2)cc1
RP-LC retention time: 672 s

COc1ccc(S(=O)(=O)N2CC(F)(F)C[C@H]2c2nc(C)no2)cc1
RP-LC retention time: 851 s

Cc1ccn2cc(-c3cccc(S(=O)(=O)N4CC(C)OC(C)C4)c3)nc2c1 (centres undefined)
RP-LC retention time: 647 s

Cc1cc(NC(=O)CSc2ccc(NC(=O)c3cccc(F)c3)nn2)no1
RP-LC retention time: 750 s

CCOc1ccccc1-n1ccn(Cc2nc(-c3ccc(C(C)(C)C)cc3)no2)c(=O)c1=O
RP-LC retention time: 699 s

O=C(C1COc2ccccc2O1)N1CCN(c2cc(-c3cccs3)[nH]n2)CC1 (centres undefined)
RP-LC retention time: 839 s

O=C(CN1CC=C(c2cnn(-c3ccccc3)c2)CC1)NCc1ccccn1
RP-LC retention time: 594 s

Cc1nn(C)c2nc(OC(C)C(=O)NCCc3ccccc3)cc(C(F)(F)F)c12 (centres undefined)
RP-LC retention time: 972 s

COc1ccc(-c2nc(C)cc(C)c2CNC(=O)C(C)(C)C)cc1
RP-LC retention time: 613 s

Cc1cc(C)c(C)c(S(=O)(=O)Nc2ccc3c(c2)OCO3)c1C
RP-LC retention time: 915 s

Cc1cc(C)cc(C(=O)N2CCN(c3nc(C)cc(N4CCOCC4)n3)CC2)c1
RP-LC retention time: 653 s

Cc1ccc(C2=NN3C(C2)c2ccccc2OC32CCCC2)o1 (centres undefined)
RP-LC retention time: 942 s

CCc1cccc(NS(=O)(=O)c2cc3n(c2)CCN(CC(C)C)C3=O)c1
RP-LC retention time: 852 s

CC(=O)N1CCC([C@@H]2CN(C(=O)c3ccc(Br)o3)C[C@H]2CO)CC1
RP-LC retention time: 622 s

CS(=O)(=O)Nc1cccc(NC(=O)c2ccc(=O)n(Cc3ccccc3)n2)c1
RP-LC retention time: 718 s

O=C(C1CCOC1)N1CC(Oc2ccc(-c3nc(-c4ccccc4)no3)cc2)C1 (centres undefined)
RP-LC retention time: 952 s

OC(CN1CCN(c2cccc(Cl)c2)CC1)C(c1ccccc1)c1ccccc1 (centres undefined)
RP-LC retention time: 885 s

CC1=NS(=O)(=O)N(C)C=C1C(=O)OCc1nc(-c2ccccc2C)no1
RP-LC retention time: 1000 s

COc1ccc(NC(=O)Cn2c(=O)c3cc(-c4ccco4)nn3c3ncccc32)cc1Cl
RP-LC retention time: 822 s

CN(CCc1noc(COc2ccc(Cl)cc2)n1)C(=O)NCc1ccccc1
RP-LC retention time: 944 s

Nc1nc(CC(=O)Nc2ccc(CCNC[C@H](O)c3ccccc3)cc2)cs1
RP-LC retention time: 591 s

O=C(Nc1ccc2c(c1)OCCO2)C1CCN(C(=O)C2Sc3ccccc3NC2=O)CC1 (centres undefined)
RP-LC retention time: 730 s

Cc1ccc2nc(C(=O)NCc3cc(F)cc(F)c3)cn2c1
RP-LC retention time: 695 s

O=c1ccc(-c2cccc(Cl)c2)nn1CCc1nc(-c2ccc3c(c2)OCO3)no1
RP-LC retention time: 999 s

Cc1cc(C)n(CCNC(=O)Cc2ccc(SC(C)C)cc2)n1
RP-LC retention time: 755 s

Cn1c(=O)n(C2CCN(C(=O)Cc3ccsc3)CC2)c2ncncc21
RP-LC retention time: 630 s

CC1(C)CC(=O)c2cn(-c3ccccc3)c(=O)c(C(=O)NC3CC3)c2C1
RP-LC retention time: 963 s

Cc1nc(-c2csc(S(=O)(=O)N3CCCC(C(=O)Nc4ccc(C#N)cc4)C3)c2)no1 (centres undefined)
RP-LC retention time: 935 s

c1ccc(CCc2nc3nccc(-c4ccncc4)n3n2)cc1
RP-LC retention time: 713 s

CCOc1ccc(NC(=O)C2(C)CCCCC(=O)N2)cc1 (centres undefined)
RP-LC retention time: 690 s

Cn1nc(CNC(=O)c2n[nH]c(=O)c3ccccc23)c2c1CCN(S(C)(=O)=O)C2
RP-LC retention time: 609 s

CCc1noc(NC(C)=O)c1-c1ccc(C)c(S(=O)(=O)N2CCN(c3ccc(OC)cc3)CC2)c1
RP-LC retention time: 919 s

OCCCCc1nccc2c1[nH]c1ccccc12
RP-LC retention time: 628 s

O=C(c1ccc(N2CCCC2)nn1)N1CCN(c2ncccn2)CC1
RP-LC retention time: 548 s

O=C(N1CCCC1c1nc(CCOCC2CC2)no1)C1(c2ccccc2)CC1 (centres undefined)
RP-LC retention time: 886 s

CCc1ccccc1NC(=O)C1CC(=O)N(c2ccc3c(c2)CCN3C(C)=O)C1 (centres undefined)
RP-LC retention time: 698 s

CCOC(=O)Cc1csc(NC(=O)Cn2nc3c(cc2=O)CCCCC3)n1
RP-LC retention time: 769 s

Cc1ccc(NC(=O)NC2CCN(c3ccccc3)C2=O)cc1C (centres undefined)
RP-LC retention time: 853 s

Cc1nn(-c2ccc(C(=O)N3CCOCC3)cc2)c2c1C(=O)CC(C)(C)C2
RP-LC retention time: 689 s

NS(=O)(=O)c1ccc(CNC(=O)C2CCN(C(=O)NCc3cccs3)CC2)cc1
RP-LC retention time: 612 s

Cc1c(C(=O)NC2CCCC2)cnn1-c1ccc(-c2nc(C(C)C)no2)cn1
RP-LC retention time: 741 s

CCC(C)NC(=O)C1CCC(=O)N(c2ccc(OC)cc2)C1c1ccc(OC)c(OC)c1 (centres undefined)
RP-LC retention time: 638 s
